From patent publication US20260174778A1, “SULFONAMIDE COMPOUND, AND PREPARATION METHOD THEREFOR AND USE THEREOF” (SHANGHAI HENLIUS BIOTECH, INC., priority 2023, published 2026)
Like-named read-outs stand apart in the source and are kept apart here.

Tests used:
[1] = tested on: breast cancer cell line ZR-75-1; assay: Inhibition of proliferation of breast cancer cell line ZR-75-1 (CellTiter-Glo); type: cell-based; details: Homo sapiens, 240 h, proliferation of ZR-75-1 cells, 10 days of incubation, read-out: IC50 (KAT6A)
Description: Test Example 1: Experiment for Determining Inhibitory Effects of Compounds on Proliferation of Breast Cancer Cell Line ZR-75-1
ATP is an indicator of the metabolism of living cells. The CellTiter-Glo® Luminescent Cell Viability Assay is a homogeneous assay method for determining the number of viable cells by quantifying ATP.
• 1) ZR-75-1 (Cell Bank of Chinese Academy of Sciences, TCHul26) • 2) RPMI-1640 medium (Gibco, 11875-093) • 3) Fetal Bovine Serum, New Zealand (Gibco,10091-148) • 4) Penicillin-streptomycin (10,000 U/mL) (Gibco, 15140-122) • 5) Trypsin-EDTA (0.25%), containing phenol red (Gibco, 25200-072) • 6) DPBS (Shanghai BasalMedia, B210KJ) • 7) Corning® 96-well Clear Flat Bottom Ultra-Low Attachment Microplate (Corning, Cat. No. 3474) • 8) 330 μL 96 Holes Deep Well Plate, transparents, 96 Round Holes, V-shaped Bottom, Low Retention (Stellar Scientific, DP33VR-9-NS) • 9) Corning® 96-well solid white flat-bottom polystyrene microplate (Corning, Cat. No. 3917) • 10) CellTiter-Glo® Luminescent Cell Viability Assay (Promega, G7573) • 11) Countstar® BioMed automatic cell counter • 12) Trypan blue solution, 0.4% (Gibco, Cat. No. 15250061) • 13) 37° C. constant-temperature incubator (Thermo, FORMA STERI-CYCLE i160 LK) • 14) Biosafety cabinet (Thermo, 1379)
• 1) The formula of the complete medium for ZR-75-1 was as follows: 500 mL RPMI-1640+10% FBS+1% penicillin-streptomycin. • 2) Thirty minutes before cell plating, the complete medium, serum, trypsin, and DPBS for use in ZR-75-1 cell culture were pre-warmed in a water bath at 37° C. • 3) The ZR-75-1 cells were taken out of the incubator, and the medium was removed by pipetting. The cells were rinsed once with 5 mL of DPBS, and then the DPBS was discarded. • 4) The cells in the T75 culture flask were digested with 1-3 mL of (0.25%) trypsin-EDTA. After the trypsin was added, the culture flask was incubated in an incubator at 37° C. for 2-5 min, and dispersion was confirmed by microscopic examination. Tapping or agitating the culture flask was avoided to prevent disturbing the cells, which might cause cell clumping. • 5) 9 mL of the complete medium was added to terminate the digestion, thus forming a cell suspension, which was then mixed well by pipetting. • 6) Cell suspension counting: 20 μL of the cell suspension was pipetted and diluted with 20 µL of the 0.4% trypan blue solution (Gibco, Cat. No. 15250061). The total cell count and the percentage of cell viability were determined using the Countstar® BioMed automatic cell counter. Only cells with a cell viability of no less than 95% were used for the experiment. • 7) The concentration of the cell suspension was adjusted to 2000 cells/well, and the cell suspension was added to a 96-well cell culture plate at 80 μL/well. Treatment of Cells with Compounds • 1) Twenty-four hours after cell plating, the cell plate was taken out. • 2) Each compound was prepared with a complete medium. The stock solution was a 10 mM solution in DMSO, which was first diluted with the medium to 100 μM, then diluted to 1 μM, and finally subjected to a 5-fold serial dilution across a total of 9 concentration gradients. • 3) 20 μL of the compound diluted with the medium was added to each well of the cell culture plate, which already contained 80 μL of the medium. The final concentration started at 200 nM, followed by a 5-fold serial dilution across a total of 9 concentration gradients. Two replicate wells were set for each compound, and each plate could be used to test 3 compounds, with the DMSO content controlled within 0.5%. • 4) The culture medium was replenished once every three days with a complete medium containing the same concentration of the test compound, with 20 μL/well added each time.
After 10 days of incubation with the compound, the cell culture plate was taken out, and the CellTiter-Glo® reagent was added at 50 μL/well. […]

[2] = Pharmacokinetics in SD (Sprague Dawley) rats; type: in vivo; details: rat, plasma, female SD rats; for half-life: read-out: T1/2 (half-life) (converted)
Protocol: Test Example 3: Determination of Pharmacokinetic Data of Compounds in SD (Sprague Dawley) Rats
The pharmacokinetic characteristics of some of the compounds of the present disclosure were evaluated by a pharmacokinetic experiment in SD rats.
Female SD rats aged 6-8 weeks from Shanghai Jihui Laboratory Animal Care Co., Ltd. were selected. The test animals were fasted overnight before administration, and feeding was resumed 4 h after administration. The compounds were dissolved in 5% DMSO+5% Tween 80+90% normal saline. For a single intravenous administration, the administration dose was 1 mg/kg, and the administration volume was 2 mL/kg. For a single intragastric administration, the administration dose was 2 mg/kg, and the administration volume was 10 mL/kg. Blood was collected at 0.083 h (for intravenous administration only), 0.25 h, 0.5 h, 1 h, 2 h, 4 h, 8 h, and 24 h after administration. At each indicated time point, about 150 μL of blood sample was collected from each rat via the vein and placed into an EDTA-K2 tube. Each sample was centrifuged (2000 g, 4° C., 5 min) within 15 min after sample collection to obtain plasma, which was then stored at −70° C. until analysis. The concentration of the corresponding test compound in the SD rat plasma was determined using UPLC-MS/MS.

Compound | IC50 [1] | further results
COc1c(F)c(Cn2cccn2)cc2onc(NS(=O)(=O)c3ccccc3OC3CCC3)c12 [Compound 108, N-(6-((1H-Pyrazol-1-yl)methyl)-5-fluoro-4-methoxybenzo[d]isoxazol-3-yl)-2-cyclobutoxybenzenesulfonamide] | 0.5 to 2 nM | –
COc1ccc2c(c1S(=O)(=O)Nc1noc3cc(Cn4cccn4)c(F)c(OC)c13)OCCC2(F)F [Compound 104, N-(6-((1H-Pyrazol-1-yl)methyl)-5-fluoro-4-methoxybenzo[d]isoxazol-3-yl)-4,4-difluoro-7-methoxychromane-8-sulfonamide] | < 0.5 nM | AUC(0-inf) ([2]; iv, i.v. 1 mg/kg): 4200 ng·h/mL; clearance ([2]; iv, i.v. 1 mg/kg, read-out: CL (clearance rate)): 3.98 mL/min/kg; half-life ([2]; iv, i.v. 1 mg/kg): 170 min; Vd ([2]; iv, i.v. 1 mg/kg, read-out: Vdss (apparent volume of distribution)): 0.705 L/kg; AUC(0-inf) ([2]; po, p.o. 2 mg/kg): 6110 ng·h/mL; bioavailability ([2]; po, p.o. 2 mg/kg, read-out: F (bioavailability)): 72.7%; half-life ([2]; po, p.o. 2 mg/kg): 128 min
COc1ccc2c(c1S(=O)(=O)Nc1noc3cc(Cn4cccn4)cc(OC)c13)OCCC2(C)O (stereo not drawn) [Compound 38, N-(6-((1H-Pyrazol-1-yl)methyl)-4-methoxybenzo[d]isoxazol-3-yl)-4-hydroxy-7-methoxy-4-methylchromane-8-sulfonamide] | < 0.5 nM | –
COc1ccc2c(c1S(=O)(=O)Nc1noc3cc(Cn4cccn4)c(F)c(OC)c13)OCCN2 [Compound 111, N-(6-((1H-Pyrazol-1-yl)methyl)-5-fluoro-4-methoxybenzo[d]isoxazol-3-yl)-7-methoxy-3,4-dihydro-2H-benzo[b][1,4]oxazine-8-sulfonamide] | < 0.5 nM | –
COc1ccc2c(c1S(=O)(=O)Nc1noc3cc(Cn4cccn4)c(F)c(OC)c13)OCCN2Cc1ccccc1 [Compound 112, N-(6-((1H-Pyrazol-1-yl)methyl)-5-fluoro-4-methoxybenzo[d]isoxazol-3-yl)-4-benzyl-7-methoxy-3,4-dihydro-2H-benzo[b][1,4]oxazine-8-sulfonamide] | 2 to 10 nM | –
COc1ccc2c(c1S(=O)(=O)Nc1noc3cc(Cn4cccn4)cc(Cl)c13)OCCO2 [Compound 34, N-(6-((1H-Pyrazol-1-yl)methyl)-4-chlorobenzo[d]isoxazol-3-yl)-6-methoxy-2,3-dihydrobenzo[b][1,4]dioxine-5-sulfonamide] | 2 to 10 nM | –
COc1ccc2c(c1S(=O)(=O)Nc1noc3cc(Cn4cccn4)cc(OC)c13)OC(C)(C)C2 [Compound 19, N-(6-((1H-Pyrazol-1-yl)methyl)-4-methoxybenzo[d]isoxazol-3-yl)-6-methoxy-2,2-dimethyl-2,3-dihydrobenzofuran-7-sulfonamide] | 2 to 10 nM | –
COc1ccc2c(c1S(=O)(=O)Nc1noc3cc(Cn4cccn4)cc(OC)c13)OCO2 [Compound 17, N-(6-((1H-Pyrazol-1-yl)methyl)-4-methoxybenzo[d]isoxazol-3-yl)-5-methoxybenzo[d][1,3]dioxole-4-sulfonamide] | 0.5 to 2 nM | –
COc1cccc(OC2CCC2)c1S(=O)(=O)Nc1noc2cc(Cn3cccn3)cc(OC)c12 [Compound 21, N-(6-((1H-Pyrazol-1-yl)methyl)-4-methoxybenzo[d]isoxazol-3-yl)-2-cyclobutoxy-6-methoxybenzenesulfonamide] | 2 to 10 nM | –
COc1cc(Cn2cccn2)cc2onc(NS(=O)(=O)c3ccccc3OC3CCC3)c12 [Compound 1, N-(6-((1H-Pyrazol-1-yl)methyl)-4-methoxybenzo[d]isoxazol-3-yl)-2-cyclobutoxybenzenesulfonamide] | 0.5 to 2 nM | –
COc1ccc2c(c1S(=O)(=O)Nc1noc3cc(Cn4cccn4)c(F)c(OC)c13)OCCC21CCCC1 [Compound 73, N-(6-((1H-Pyrazol-1-yl)methyl)-5-fluoro-4-methoxybenzo[d]isoxazol-3-yl)-7-methoxyspiro[chromane-4,1′-cyclopentane]-8-sulfonamide] | 0.5 to 2 nM | –
COc1ccc2c(c1S(=O)(=O)Nc1noc3cc(Cn4cccn4)c(F)c(OC)c13)OCC=C2C [Compound 106, N-(6-((1H-Pyrazol-1-yl)methyl)-5-fluoro-4-methoxybenzo[d]isoxazol-3-yl)-7-methoxy-4-methyl-2H-chromene-8-sulfonamide] | < 0.5 nM | –
COc1ccc2c(c1S(=O)(=O)Nc1noc3cc(Cn4cccn4)c(Cl)c(OC)c13)OCCO2 [Compound 30, N-(6-((1H-Pyrazol-1-yl)methyl)-5-chloro-4-methoxybenzo[d]isoxazol-3-yl)-6-methoxy-2,3-dihydrobenzo[b][1,4]dioxine-5-sulfonamide] | 10 to 50 nM | –
COc1ccccc1S(=O)(=O)Nc1nsc2cc(Cn3cccn3)cc(OC)c12 [Compound 9, N-(6-((1H-Pyrazol-1-yl)methyl)-4-methoxybenzo[d]isothiazol-3-yl)-2-methoxybenzenesulfonamide] | ≥ 50 nM | –
